# Columns and labels:
# [1] = in vitro; details: PAMPA, pH 7.4
# Experimental: Stock solutions of compounds of the invention were prepared in dimethyl sulfoxide (DMSO) to a final concentration of 10 mM. Each stock solution was diluted to 50 µM in pH 7.4 Prisma HT buffer (pION) in the presence of 10% MeOH (v/v). 200 µL were added to each well of the donor plate in quintuplicate. […] The acceptor filter plate was carefully placed on top of the donor plate to form a "sandwich." The sandwich was incubated at 25°C for 5 h, at 300 rpm. UV-vis spectra of the solutions in the blank, reference, acceptor, and donor plates were measured using a Tecan Infinite 200 PRO M Nano Plus microplate reader.
# [2] = molecular target: T1, MDR1 (Homo sapiens, UniProt P08183); test: MDR1 efflux substrate assay in MDCK-MDR1; type: in vitro ADME; details: for efflux ratio at 60 min, 5 µM / Papp A→B at 60 min, 5 µM / Papp B→A at 60 min, 5 µM: dog; for efflux ratio at 60 min, 5 µM: MDCK-MDR1, pH 7.4, read-out: Efflux ratio B/A; for Papp A→B at 60 min, 5 µM / Papp B→A at 60 min, 5 µM: MDCK-MDR1, 5µM, pH 7.4; for Papp A→B at 60 min, 5 µM: read-out: Papp A (donor) to B (acceptor); for Papp B→A at 60 min, 5 µM: read-out: Papp B (acceptor) to A (donor); for MDR1 efflux potential: in words
# T1 construct: host or cells: MDCK-MDR1 (Preadyport)
# Experimental: (§1) MDR1 and BCRP efflux substrate assays were conducted in MDCK-MDR1 and MDCK-BCRP in vitro models (Preadyport™, Solvo Biotech) at Symeres (Nederland). Compound of the invention (donor well concentration of 5µM) were incubated in cell monolayer 24-transwell Preadyport system, using Preadyport recommended pH 7.4 assay buffer (donor and receiver wells). After 60 min of incubation (no shaking), samples are collected and suspended into triple volume of 66% cold acetonitrile. Samples are stored at -20°C until thawed, centrifuged and analyzed by LC-MS. Quinidine was used a positive control for the MDR1 assay, and prazosin was used as a positive control for the BCRP assay. Exatecan was used as a control, known not to be an MDR1 substrate. Residual DMSO content from compounds stock solutions was below 1% (v/v). The assay was performed in duplicate. The quantification of test compounds in donor or receptor compartment is conducted using relative LC/MS peak areas (samples of initial incubation solutions are used as a single point calibrator), without any spiked standard samples. The data is used for estimating apparent permeability (Papp) and calculation of efflux ratio.
# [3] = system: MDA-MB-231; test: In vitro cytotoxicity assay (MTT); type: cell-based, human; details: Homo sapiens, 6 days incubation
# Experimental: (§2) In vitro cytotoxicity of compounds of the disclosure was assessed on several cancerous human cell lines. Cells were plated in 96-well plates at an appropriate density depending on the cell line (between 1000 and 10 000 cells/well in 100µL of appropriate culture media) and incubated at 37°C for 24 hours. Serial dilutions of the tested compound previously dissolved in culture media (50µL) were added, and incubation was carried at 37°C out for 6 days. MTT (5mg/mL in PBS, 20µL, Sigma-Aldrich) was added into the wells, and incubation was continued for 1 to 4 hours at 37°C. Culture media was then carefully removed, and well content was homogeneously dissolved with acidified isopropanol. Absorbance values were measured on a microplate reader using a wavelength of 570 nm (with a reference wavelength of 690 nm). The IC50 concentration values compared to untreated control cells were determined using inhibition dose response curve fitting (GraphPad Prism 9). Exatecan mesylate (cat#HY-13631A) and CR8 (CAS# 294646-77-8; cat#HY-18340) were purchased from MedChemExpress (China).
# [4] = system: SKBR-3; test: In vitro cytotoxicity assay (MTT); type: cell-based, human; details: Homo sapiens, SK-BR-3, 144 h, 6 days incubation
# Experimental: as §2
# [5] = system: BT-474; test: In vitro cytotoxicity assay (MTT); type: cell-based, human; details: Homo sapiens, BT-474, 144 h
# Experimental: as §2
# [6] = system: NCI-N87; test: In vitro cytotoxicity assay (MTT); type: cell-based, human; details: Homo sapiens, 6 days incubation
# Experimental: as §2
# [7] = system: MDA-MB-453; test: In vitro cytotoxicity assay (MTT); type: cell-based, human; details: Homo sapiens, 6 days incubation
# Experimental: as §2
# [8] = system: KB-1; test: In vitro cytotoxicity assay (MTT); type: cell-based; details: Homo sapiens, KB16, 144 h, 6 days incubation
# Experimental: as §2
# [9] = molecular target: T2, BCRP (Homo sapiens, UniProt Q9UNQ0); test: BCRP efflux substrate assay in MDCK-BCRP; type: in vitro ADME; details: for efflux ratio at 60 min, 5 µM / Papp A→B at 60 min, 5 µM / Papp B→A at 60 min, 5 µM: dog, pH 7.4, MDCK-BCRP; for efflux ratio at 60 min, 5 µM: read-out: Efflux ratio B/A; for Papp A→B at 60 min, 5 µM: read-out: Papp A (donor) to B (acceptor); for Papp B→A at 60 min, 5 µM: read-out: Papp B (acceptor) to A (donor); for BCRP efflux potential: in words
# T2 construct: host or cells: MDCK-BCRP (Preadyport)
# T2 sequence (Q9UNQ0 1-655): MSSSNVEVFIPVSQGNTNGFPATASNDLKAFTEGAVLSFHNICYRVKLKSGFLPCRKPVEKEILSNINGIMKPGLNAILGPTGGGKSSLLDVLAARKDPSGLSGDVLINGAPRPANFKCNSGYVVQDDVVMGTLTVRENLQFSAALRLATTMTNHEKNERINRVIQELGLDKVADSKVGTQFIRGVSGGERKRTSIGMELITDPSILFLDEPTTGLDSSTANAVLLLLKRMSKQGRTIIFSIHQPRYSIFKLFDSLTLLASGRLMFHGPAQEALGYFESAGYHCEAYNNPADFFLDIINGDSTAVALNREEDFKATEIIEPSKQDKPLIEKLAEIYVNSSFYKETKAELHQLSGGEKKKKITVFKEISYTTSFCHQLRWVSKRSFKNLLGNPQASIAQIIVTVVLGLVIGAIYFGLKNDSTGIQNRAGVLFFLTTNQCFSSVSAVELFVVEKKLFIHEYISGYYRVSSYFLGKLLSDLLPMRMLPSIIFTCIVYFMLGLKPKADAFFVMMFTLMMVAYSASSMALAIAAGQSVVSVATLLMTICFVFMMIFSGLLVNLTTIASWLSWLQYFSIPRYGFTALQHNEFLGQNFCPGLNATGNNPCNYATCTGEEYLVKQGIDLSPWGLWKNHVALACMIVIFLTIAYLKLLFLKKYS
# Experimental: as §1
# [10] = system: JIMT-1; test: In vitro cytotoxicity assay (MTT); type: cell-based, human; details: Homo sapiens, 144 h, 6 days incubation
# Experimental: as §2
# [11] = system: MCF-7; test: In vitro cytotoxicity assay (MTT); type: cell-based; details: Homo sapiens, MCF7, 144 h, 6 days incubation
# Experimental: as §2
# [12] = system: HT-29; test: In vitro cytotoxicity assay (MTT); type: cell-based; details: Homo sapiens, 144 h, 6 days incubation
# Experimental: as §2
# [13] = system: BXPC3; test: In vitro cytotoxicity assay (MTT); type: cell-based; details: Homo sapiens, BXPC-3, 144 h, 6 days incubation
# Experimental: as §2
# T1 sequence (P08183 whole entry): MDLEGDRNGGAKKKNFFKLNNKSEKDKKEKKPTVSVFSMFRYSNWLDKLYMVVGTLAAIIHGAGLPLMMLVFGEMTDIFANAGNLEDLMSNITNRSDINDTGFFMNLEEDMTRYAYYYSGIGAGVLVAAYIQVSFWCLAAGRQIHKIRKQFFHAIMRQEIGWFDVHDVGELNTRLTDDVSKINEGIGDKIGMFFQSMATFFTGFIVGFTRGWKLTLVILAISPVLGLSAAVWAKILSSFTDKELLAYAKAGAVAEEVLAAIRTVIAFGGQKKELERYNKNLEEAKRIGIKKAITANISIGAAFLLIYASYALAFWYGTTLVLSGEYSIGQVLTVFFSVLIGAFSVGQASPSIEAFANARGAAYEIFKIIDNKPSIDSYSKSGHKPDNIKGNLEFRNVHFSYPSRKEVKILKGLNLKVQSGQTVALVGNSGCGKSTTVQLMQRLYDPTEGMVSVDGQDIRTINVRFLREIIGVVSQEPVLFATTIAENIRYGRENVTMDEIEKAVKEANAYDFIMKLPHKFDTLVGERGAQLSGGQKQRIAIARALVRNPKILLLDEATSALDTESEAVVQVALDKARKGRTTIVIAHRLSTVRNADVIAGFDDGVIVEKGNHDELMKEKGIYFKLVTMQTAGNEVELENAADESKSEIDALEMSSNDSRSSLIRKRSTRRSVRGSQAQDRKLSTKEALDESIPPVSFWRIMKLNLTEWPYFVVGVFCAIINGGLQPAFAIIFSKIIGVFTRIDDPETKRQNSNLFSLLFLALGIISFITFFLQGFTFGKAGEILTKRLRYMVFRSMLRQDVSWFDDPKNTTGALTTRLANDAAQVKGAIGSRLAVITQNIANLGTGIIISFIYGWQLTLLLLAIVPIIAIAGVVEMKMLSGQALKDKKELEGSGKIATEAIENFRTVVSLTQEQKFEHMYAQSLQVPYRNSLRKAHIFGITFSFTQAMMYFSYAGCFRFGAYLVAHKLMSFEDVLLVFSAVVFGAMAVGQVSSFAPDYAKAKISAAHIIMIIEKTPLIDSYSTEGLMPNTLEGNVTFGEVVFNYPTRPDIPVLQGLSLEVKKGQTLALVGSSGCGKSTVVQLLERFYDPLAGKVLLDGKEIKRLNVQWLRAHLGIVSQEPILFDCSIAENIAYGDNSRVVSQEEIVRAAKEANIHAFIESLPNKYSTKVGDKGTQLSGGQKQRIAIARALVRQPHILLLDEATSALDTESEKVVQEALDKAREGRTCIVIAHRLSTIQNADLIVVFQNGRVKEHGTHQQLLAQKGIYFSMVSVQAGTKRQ
Structure (SMILES),"Papp at 5 h, 50 µM [1] [×10⁻⁶ cm/s]","efflux ratio at 60 min, 5 µM [2]","Papp A→B at 60 min, 5 µM [2] [×10⁻⁶ cm/s]","Papp B→A at 60 min, 5 µM [2] [×10⁻⁶ cm/s]","IC50 ([3]; MDA-MB-231, 144 h) [nM]",IC50 [4] [nM],"IC50 ([5]; BT-474, 6 days incubation, MTT) [nM]","IC50 ([6]; NCI-N87, 144 h) [nM]","IC50 ([7]; MDA-MB-453, 144 h) [nM]",IC50 [8] [nM],"efflux ratio at 60 min, 5 µM [9]","Papp A→B at 60 min, 5 µM [9] [×10⁻⁶ cm/s]","Papp B→A at 60 min, 5 µM [9] [×10⁻⁶ cm/s]",IC50 [10] [nM],IC50 [11] [nM],IC50 [12] [nM],IC50 [13] [nM],further results
N[C@H]1CCC[C@@H]1Nc1nc(NCc2ccc(-c3ccccn3)cc2)n2ncc(Br)c2n1 [Compound 2668],164,41.6,1.36,56.4,0.82,0.2,2.16,0.84,1.78,2.99,6.99,10.2,71,,,,,
CNCCN(C)c1nc(NCc2ccc(-c3ccccn3)cc2)n2ncc(Br)c2n1 [Compound 2605],112,13.4,4.05,54.5,1.54,7.46,2.76,4.5,3.66,,1.31,30.9,40.5,1.22,3.7,0.33,2.91,MDR1 efflux potential [2]: low level; BCRP efflux potential [9]: low level
N[C@H]1CC[C@@H](Nc2nc(NCc3ccc(-c4ccccn4)cc3)n3ncc(Br)c3n2)CC1 [Compound 2568],88,,< 0.54,40.5,,4.36,,,,4.95,23.6,2.52,59.5,0.62,11.6,0.46,4.86,IC50 ([3]; 144 h): 0.98 nM; IC50 [5]: 1.75 nM; IC50 ([6]; 144 h): 2.22 nM; IC50 ([7]; 144 h): 1.67 nM
NCCCCNc1nc(NCc2ccc(-c3ccccn3)cc2)n2ncc(Br)c2n1 [Compound 2585],< 0.3,,< 3.4,34,24.7,38.9,1.77,15.4,26.8,,27.9,1.75,49,7.86,,,,
NCC1CCN(c2nc(NCc3ccc(-c4ccccn4)cc3)n3ncc(Br)c3n2)CC1 [Compound 2560],135,,< 0.7,26.6,1.92,4.33,5.92,3.29,1.61,,4.94,7.53,37.2,0.6,,,,
Brc1cnn2c(NCc3ccc(-c4ccccn4)cc3)nc(NC[C@@H]3CCCN3)nc12 [Compound 2571],149,108,0.59,64.2,2.22,7.75,2.68,4.27,3.55,,12.9,7.09,91.4,1.53,79.6,1.12,5.43,
NC[C@H]1CC[C@H](Nc2nc(NCc3ccc(-c4ccccn4)cc3)n3ncc(Br)c3n2)CC1 [Compound 2636],67,,< 12.9,30.8,1.46,0.17,3.68,2.46,1.97,8.1,6.21,3,18.6,0.12,33.1,1.28,4.68,
N[C@H]1CCN(c2nc(NCc3ccc(-c4ccccn4)cc3)n3ncc(Br)c3n2)C1 [Compound 2655],125,5.25,5.13,26.9,0.54,0.14,1.57,1.95,0.97,1.66,3.47,11.1,38.7,,,,,MDR1 efflux potential [2]: low level; BCRP efflux potential [9]: low level
N[C@H]1CCCC[C@@H]1Nc1nc(NCc2ccc(-c3ccccn3)cc2)n2ncc(Br)c2n1 [Compound 2671],176,43.7,0.99,43.2,1.74,0.42,3.34,1.47,2.22,7.6,4.54,10.1,46,,,,,
"CC[C@@]1(O)C(=O)OCc2c1cc1n(c2=O)Cc2c-1nc1cc(F)c(C)c3c1c2[C@@H](N)CC3 [Exatecan, reference compound]",58,7.31,2.28,16.7,,,,,,,12.3,1.43,17.6,,,,,
N[C@H]1CCC[C@@H](Nc2nc(NCc3ccc(-c4ccccn4)cc3)n3ncc(Br)c3n2)C1 [Compound 2670],132,,< 0.5,23.5,2.67,0.72,5.77,2.53,9.19,,5.93,5.02,29.8,,,,,
CN(CCN)c1nc(NCc2ccc(-c3ccccn3)cc2)n2ncc(Br)c2n1 [Compound 2600],90,28.9,2.05,59.3,0.29,1.69,1.18,1.32,1.17,1.48,2.1,22.4,47.1,0.19,12.2,0.28,1.16,MDR1 efflux potential [2]: low level; BCRP efflux potential [9]: low level
